Laboratory results published in patent US10729130B2, “Nematicidal compositions and methods of using them” (Eden Research plc, priority 2004, dated 2020).

Columns and labels:
Type in all cases: physicochemical
[1] = Baker's YP loading of different terpenes and terpene mixtures; parameters: key to Free Terpene: +: “free terpene” refers to the visible presence of terpene in the centrifuged reaction mixture; −: The absence of free terpene indicates complete absorption of the terpene by the particles; settings: for Free Terpene: Baker's YP 250 mg/ml 500 μl; for Vol. Loaded μl: approximate maximal terpene loading in Baker's YP
Description: Increasing volumes of terpene emulsion were mixed with 250 mg/ml Baker's YP or 250 mg/ml SAF Mannan™ overnight at room temperature as shown in Tables 27 and 28. Samples were centrifuged at 14,000×g for 10 minutes and the appearance of free terpene floating on the aqueous layer was scored. The highest volume of terpene emulsion absorbed by Baker's YP or SAF Mannan™ as evidenced by the absence of free terpene was recorded as the volume of absorbed terpene emulsion. Colour of encapsulated terpenes in the pellet was recorded.
Percentage loaded represents a ratio of the amount of terpene loaded to the amount of particle present (weight for weight).

[2] = Kinetics of terpene loading into various particles at room temperature or 37° C.; parameters: key: +: “free terpene” refers to the visible presence of terpene in the centrifuged reaction mixture; −: The absence of free terpene indicates complete absorption of the terpene by the particles
Description: 1% Tween-80 solution was prepared by sonicating 1 ml 10% Tween-80 in 10 ml water. • Baker's YP was prepared by mixing 5 g of bakers YP in 20 ml 1% Tween-80. • Nutrex™ YGP suspension was prepared by mixing 2 g Nutrex™ YGP in 20 ml 1% Tween-80. • SAF Mannan™ suspension was prepared by mixing 2 g SAF Mannan™ in 20 ml 1% Tween-80.
The reactions were incubated for 1, 3, 6, 9 and 24 hours at room temperature or 37° C. After incubation samples were centrifuged at 14,000×g for 10 minutes and the appearance of free terpene floating on the aqueous layer was scored. The highest volume of terpene absorbed by the particles as evidenced by the absence of free terpene was recorded as the volume of absorbed terpene emulsion. Colour of the encapsulated pellet was scored at 24 hours.

[3] = Terpene loading with surfactant, Tween-80:terpene ratio (free terpene score); parameters: key: Sl = slight; settings: 250 mg/ml YP
Description: Samples were centrifuged at 14,000×g for 10 minutes and the appearance of free terpene floating on the aqueous layer was scored. The expression “free terpene” refers to the visible presence of terpene in the centrifuged reaction mixture. The absence of free terpene indicates complete absorption and encapsulation of the terpene by the YP. The highest volume of terpene absorbed by the YP, as evidenced by the absence of free terpene, was recorded as the maximal volume of absorbed terpene emulsion.

[4] = Maximal citral and L-carvone loading in Baker's yeast particles (free terpene score); parameters: key to Free Terpene: +: “free terpene” refers to the visible presence of terpene in the centrifuged reaction mixture; −: The absence of free terpene indicates complete absorption of the terpene by the particles; settings: for terpene emulsion absorbed and encapsulated per 10 mg of YP: Baker's YP 20 mg/ml; for Free Terpene: 500 μl 20 mg/ml YP, overnight room temperature
Description: Samples were centrifuged at 14,000×g for 10 minutes and the appearance of free terpene floating on the aqueous layer was scored. The expression “free terpene” refers to the visible presence of terpene in the centrifuged reaction mixture. The absence of free terpene indicates complete absorption of the terpene by the particles. The highest volume of terpene absorbed by the particles, as evidenced by the absence of free terpene, was recorded as the maximal volume of absorbed terpene emulsion.

[5] = emulsion 15 μl, 1% Tween-80 485 μl
[6] = emulsion 37.5 μl, 1% Tween-80 462.5 μl
[7] = emulsion 150 μl, 1% Tween-80 350 μl
[8] = emulsion 225 μl, 1% Tween-80 275 μl
[9] = 37 ° C., Bakers 250 mg/ml, emulsion 788 μl L-carvone or 525 μl Citral, 1 hr
[10] = 37 ° C., Bakers 250 mg/ml, emulsion 788 μl L-carvone or 525 μl Citral, 3 hr
[11] = 37 ° C., Bakers 250 mg/ml, emulsion 788 μl L-carvone or 525 μl Citral, 6 hr
[12] = 37 ° C., Bakers 250 mg/ml, emulsion 788 μl L-carvone or 525 μl Citral, 9 hr
[13] = 37 ° C., Bakers 250 mg/ml, emulsion 788 μl L-carvone or 525 μl Citral, 24 hr
[14] = 37 ° C., Nutrex 100 mg/ml, emulsion 1050 μl L-carvone or 788 μl Citral, 1 hr
[15] = 37 ° C., Nutrex 100 mg/ml, emulsion 1050 μl L-carvone or 788 μl Citral, 3 hr
[16] = 37 ° C., Nutrex 100 mg/ml, emulsion 1050 μl L-carvone or 788 μl Citral, 6 hr
[17] = 37 ° C., Nutrex 100 mg/ml, emulsion 1050 μl L-carvone or 788 μl Citral, 9 hr
[18] = 37 ° C., Nutrex 100 mg/ml, emulsion 1050 μl L-carvone or 788 μl Citral, 24 hr
[19] = 37 ° C., SAF 100 mg/ml, emulsion 1050 μl L-carvone or 788 μl Citral, 1 hr
[20] = 37 ° C., SAF 100 mg/ml, emulsion 1050 μl L-carvone or 788 μl Citral, 3 hr
[21] = 37 ° C., SAF 100 mg/ml, emulsion 1050 μl L-carvone or 788 μl Citral, 6 hr
[22] = 37 ° C., SAF 100 mg/ml, emulsion 1050 μl L-carvone or 788 μl Citral, 9 hr
[23] = 37 ° C., SAF 100 mg/ml, emulsion 1050 μl L-carvone or 788 μl Citral, 24 hr
[24] = Rt, Bakers 250 mg/ml, emulsion 788 μl L-carvone or 525 μl Citral, 1 hr
[25] = Rt, Bakers 250 mg/ml, emulsion 788 μl L-carvone or 525 μl Citral, 3 hr
[26] = Rt, Bakers 250 mg/ml, emulsion 788 μl L-carvone or 525 μl Citral, 6 hr
[27] = Rt, Bakers 250 mg/ml, emulsion 788 μl L-carvone or 525 μl Citral, 9 hr
[28] = Rt, Bakers 250 mg/ml, emulsion 788 μl L-carvone or 525 μl Citral, 24 hr
[29] = Rt, Nutrex 100 mg/ml, emulsion 1050 μl L-carvone or 788 μl Citral, 1 hr
[30] = Rt, Nutrex 100 mg/ml, emulsion 1050 μl L-carvone or 788 μl Citral, 3 hr
[31] = Rt, Nutrex 100 mg/ml, emulsion 1050 μl L-carvone or 788 μl Citral, 6 hr
[32] = Rt, Nutrex 100 mg/ml, emulsion 1050 μl L-carvone or 788 μl Citral, 9 hr
[33] = Rt, Nutrex 100 mg/ml, emulsion 1050 μl L-carvone or 788 μl Citral, 24 hr
[34] = Rt, SAF 100 mg/ml, emulsion 1050 μl L-carvone or 788 μl Citral, 1 hr
[35] = Rt, SAF 100 mg/ml, emulsion 1050 μl L-carvone or 788 μl Citral, 3 hr
[36] = Rt, SAF 100 mg/ml, emulsion 1050 μl L-carvone or 788 μl Citral, 6 hr
[37] = Rt, SAF 100 mg/ml, emulsion 1050 μl L-carvone or 788 μl Citral, 9 hr
[38] = Rt, SAF 100 mg/ml, emulsion 1050 μl L-carvone or 788 μl Citral, 24 hr
[39] = emulsion 0.5 μl, 10% Tween-80 500 μl
[40] = emulsion 1.65 μl, 10% Tween-80 500 μl
[41] = emulsion 5 μl, 10% Tween-80 495 μl
[42] = emulsion 50 μl, 10% Tween-80 450 μl
[43] = emulsion 165 μl, 10% Tween-80 335 μl

CC(C)=CCCC(C)=CC=O [Citral, citral]
Free Terpene [1, 5]: − | Free Terpene [1, 6]: − | Free Terpene ([1]; emulsion 75 μl, 1% Tween-80 425 μl): − | Free Terpene [1, 7]: + | Free Terpene [1, 8]: + | Free Terpene ([1]; emulsion 450 μl, 1% Tween-80 50 μl): + | Vol. Loaded μl [1]: 75 µL | Free Terpene (hr) [2, 9]: + | Free Terpene (hr) [2, 10]: − | Free Terpene (hr) [2, 11]: − | Free Terpene (hr) [2, 12]: − | Free Terpene (hr) [2, 13]: − | Free Terpene (hr) [2, 14]: + | Free Terpene (hr) [2, 15]: − | Free Terpene (hr) [2, 16]: − | Free Terpene (hr) [2, 17]: − | Free Terpene (hr) [2, 18]: − | Free Terpene (hr) [2, 19]: + | Free Terpene (hr) [2, 20]: − | Free Terpene (hr) [2, 21]: − | Free Terpene (hr) [2, 22]: − | Free Terpene (hr) [2, 23]: − | Free Terpene (hr) [2, 24]: + | Free Terpene (hr) [2, 25]: − | Free Terpene (hr) [2, 26]: − | Free Terpene (hr) [2, 27]: − | Free Terpene (hr) [2, 28]: − | Free Terpene (hr) [2, 29]: + | Free Terpene (hr) [2, 30]: − | Free Terpene (hr) [2, 31]: − | Free Terpene (hr) [2, 32]: − | Free Terpene (hr) [2, 33]: − | Free Terpene (hr) [2, 34]: + | Free Terpene (hr) [2, 35]: − | Free Terpene (hr) [2, 36]: − | Free Terpene (hr) [2, 37]: − | Free Terpene (hr) [2, 38]: − | Free Terpene ([3]; Citral emulsion 113 μl, 10% Tween-80 33 μl): Sl | Free Terpene ([3]; Citral emulsion 113 μl, 10% Tween-80 100 μl): Sl | terpene emulsion absorbed and encapsulated per 10 mg of YP [4]: at least 5 μl | Free Terpene [4, 39]: − | Free Terpene [4, 40]: − | Free Terpene [4, 41]: − | Free Terpene [4, 42]: + | Free Terpene [4, 43]: + | Free Terpene ([4]; emulsion 500 μl, no Tween-80): +

L-carvone
Free Terpene [1, 5]: − | Free Terpene [1, 6]: − | Free Terpene [1, 7]: + | Free Terpene [1, 8]: + | Vol. Loaded μl [1]: 37.5 µL | % Loaded w/w ([1]; maximal loading in Baker's YP, ratio of terpene loaded to particle present, weight for weight): 33.3 % w/w | Free Terpene (hr) [2, 9]: + | Free Terpene (hr) [2, 10]: − | Free Terpene (hr) [2, 11]: − | Free Terpene (hr) [2, 12]: − | Free Terpene (hr) [2, 13]: − | Free Terpene (hr) [2, 14]: + | Free Terpene (hr) [2, 15]: − | Free Terpene (hr) [2, 16]: − | Free Terpene (hr) [2, 17]: − | Free Terpene (hr) [2, 18]: − | Free Terpene (hr) [2, 19]: <+ | Free Terpene (hr) [2, 20]: − | Free Terpene (hr) [2, 21]: − | Free Terpene (hr) [2, 22]: − | Free Terpene (hr) [2, 23]: − | Free Terpene (hr) [2, 24]: + | Free Terpene (hr) [2, 25]: − | Free Terpene (hr) [2, 26]: − | Free Terpene (hr) [2, 27]: − | Free Terpene (hr) [2, 28]: − | Free Terpene (hr) [2, 29]: + | Free Terpene (hr) [2, 30]: − | Free Terpene (hr) [2, 31]: − | Free Terpene (hr) [2, 32]: − | Free Terpene (hr) [2, 33]: − | Free Terpene (hr) [2, 34]: <+ | Free Terpene (hr) [2, 35]: − | Free Terpene (hr) [2, 36]: − | Free Terpene (hr) [2, 37]: − | Free Terpene (hr) [2, 38]: − | Free Terpene ([3]; L-carvone emulsion 150 μl, 10% Tween-80 0 μl): Sl | Free Terpene ([3]; L-carvone emulsion 150 μl, 10% Tween-80 5 μl): Sl | Free Terpene ([3]; L-carvone emulsion 150 μl, 10% Tween-80 10 μl): Sl | Free Terpene ([3]; L-carvone emulsion 150 μl, 10% Tween-80 33 μl): Sl | terpene emulsion absorbed and encapsulated per 10 mg of YP [4]: at least 16.5 μl | Free Terpene [4, 39]: − | Free Terpene [4, 40]: − | Free Terpene [4, 41]: − | Free Terpene ([4]; emulsion 16.5 μl, 10% Tween-80 483.5 μl): − | Free Terpene [4, 42]: + | Free Terpene [4, 43]: + | Free Terpene ([4]; emulsion 500 μl, no Tween-80): +
